System: alanine mutant versions of CD25
Assay: Alanine mutagenesis functional epitope mapping
Settings: binding responses to alanine mutant versions of CD25
Description: Alanine mutagenesis was selected as an orthogonal method for binning antibodies because it operates on the functional epitope, rather than the structural epitope defined by competition assays. Various pairs of surface-accessible residues were selected for mutagenesis.
Each of 117 scFv's from the screening campaign were tested against four alanine mutations pairs (FIG. 31).

Substance: basiliximab
- Ala-mutant epitope mapping of control antibody: Ala mutant binding responses corroborate crystal structure of the basiliximab epitope

Reference: patent US12441803B2, “Engineered CD25 polypeptides and uses thereof” (iBio, Inc., priority 2018, dated 2025)
